In patent US20150361139A1, “CRYSTALLINE FORM OF LINACLOTIDE” (SANDOZ AG, priority 2013, published 2015):
Like-named read-outs stand apart in the source and are kept apart here. Peptide text beside a SMILES is read from it.

Experiments:
[1] = 40° C./75% RH, according to U.S. Pat. No. 8,222,201 (WO 2010/059733), cited from earlier work
[2] = Stability tests: solid stored in open vials at 40° C./75% RH, purity by HPLC; format: physicochemical; conditions: for Normalised purity: 40° C./75% RH, open vial
Method: The purity of solid samples was measured in area percentage by HPLC analysis using the method reported below:
Approximately 10 mg of material was placed in each vial (ea. 1.5 mL, open, clear glass vial).
Three vials were placed into a beaker which was then stored in a sealed desiccator containing a sodium chloride solution which keeps a constant 75% RH. The desiccator was placed into an oven at 40° C.
One vial at a time was taken out after 7 days, 14 days and 1 month and analysed.
Ovens were temperature monitored using calibrated thermometers with min and max temperatures recorded throughout the stability study.

Compound	Normalised purity ([1]; Day 7) [%]	Normalised purity ([1]; Day 14) [%]	Normalised purity ([1]; Month 1) [%]	Normalised purity ([2]; Day 7) [%]	Normalised purity ([2]; Day 14) [%]	Normalised purity ([2]; Month 1) [%]	Susceptibility to degradation (chemical stability) compared with form alpha ([2]; open atmosphere of 75% RH and 40° C.)
C[C@@H]1NC(=O)[C@@H]2CCCN2C(=O)[C@H](CC(N)=O)NC(=O)[C@@H]2CSSC[C@H](N)C(=O)N[C@H]3CSSC[C@H](NC1=O)C(=O)N[C@@H]([C@@H](C)O)C(=O)NCC(=O)N[C@H](C(=O)N[C@@H](Cc1ccc(O)cc1)C(=O)O)CSSC[C@H](NC(=O)[C@H](Cc1ccc(O)cc1)NC(=O)[C@H](CCC(=O)O)NC3=O)C(=O)N2 [Form Alpha, Linaclotide] (HELM PEPTIDE1{C.C.E.Y.C.C.N.P.A.C.T.G.C.Y}$PEPTIDE1,PEPTIDE1,1:R3-6:R3|PEPTIDE1,PEPTIDE1,2:R3-10:R3|PEPTIDE1,PEPTIDE1,5:R3-13:R3$$$V2.0)	100	94.8	91.9	–	–	–	–
C[C@@H]1NC(=O)[C@@H]2CCCN2C(=O)[C@H](CC(N)=O)NC(=O)[C@@H]2CSSC[C@H](N)C(=O)N[C@H]3CSSC[C@H](NC1=O)C(=O)N[C@@H]([C@@H](C)O)C(=O)NCC(=O)N[C@H](C(=O)N[C@@H](Cc1ccc(O)cc1)C(=O)O)CSSC[C@H](NC(=O)[C@H](Cc1ccc(O)cc1)NC(=O)[C@H](CCC(=O)O)NC3=O)C(=O)N2 [Form II, Linaclotide] (HELM PEPTIDE1{C.C.E.Y.C.C.N.P.A.C.T.G.C.Y}$PEPTIDE1,PEPTIDE1,1:R3-6:R3|PEPTIDE1,PEPTIDE1,2:R3-10:R3|PEPTIDE1,PEPTIDE1,5:R3-13:R3$$$V2.0)	–	–	–	100	100	98.9	less susceptible to degradation than form alpha
